The record followed here is ChEMBL document CHEMBL4330176, “Imidazoquinolines as Novel Inhibitors of LRRK2 Kinase Activity” (ACS Med Chem Lett, 2019).

Experiment [1] deals with Leucine-rich repeat serine/threonine-protein kinase 2 (Homo sapiens, UniProt Q5S007, G2019S). In words: Inhibition of GST-tagged LRRK2 G2019S mutant (unknown origin) expressed in baculovirus expression system using fluorescein-labeled LRRKtide as substrate after 30 mins by Lanthascreen assay. On the technique in general: Time-resolved FRET reads energy transfer from a long-lived donor to a nearby acceptor.

Experiment [2] addresses Leucine-rich repeat serine/threonine-protein kinase 2 (Homo sapiens, UniProt Q5S007). In words: Inhibition of recombinant wild-type GST-tagged LRRK2 (unknown origin) expressed in baculovirus expression system using fluorescein-labeled LRRKtide as substrate after 30 mins by Lanthascreen assay.

As a reminder, the IC50 is the concentration needed to halve the response being measured.

Sequence of Leucine-rich repeat serine/threonine-protein kinase 2 (Homo sapiens, UniProt Q5S007, G2019S) (Q5S007 whole entry G2019S): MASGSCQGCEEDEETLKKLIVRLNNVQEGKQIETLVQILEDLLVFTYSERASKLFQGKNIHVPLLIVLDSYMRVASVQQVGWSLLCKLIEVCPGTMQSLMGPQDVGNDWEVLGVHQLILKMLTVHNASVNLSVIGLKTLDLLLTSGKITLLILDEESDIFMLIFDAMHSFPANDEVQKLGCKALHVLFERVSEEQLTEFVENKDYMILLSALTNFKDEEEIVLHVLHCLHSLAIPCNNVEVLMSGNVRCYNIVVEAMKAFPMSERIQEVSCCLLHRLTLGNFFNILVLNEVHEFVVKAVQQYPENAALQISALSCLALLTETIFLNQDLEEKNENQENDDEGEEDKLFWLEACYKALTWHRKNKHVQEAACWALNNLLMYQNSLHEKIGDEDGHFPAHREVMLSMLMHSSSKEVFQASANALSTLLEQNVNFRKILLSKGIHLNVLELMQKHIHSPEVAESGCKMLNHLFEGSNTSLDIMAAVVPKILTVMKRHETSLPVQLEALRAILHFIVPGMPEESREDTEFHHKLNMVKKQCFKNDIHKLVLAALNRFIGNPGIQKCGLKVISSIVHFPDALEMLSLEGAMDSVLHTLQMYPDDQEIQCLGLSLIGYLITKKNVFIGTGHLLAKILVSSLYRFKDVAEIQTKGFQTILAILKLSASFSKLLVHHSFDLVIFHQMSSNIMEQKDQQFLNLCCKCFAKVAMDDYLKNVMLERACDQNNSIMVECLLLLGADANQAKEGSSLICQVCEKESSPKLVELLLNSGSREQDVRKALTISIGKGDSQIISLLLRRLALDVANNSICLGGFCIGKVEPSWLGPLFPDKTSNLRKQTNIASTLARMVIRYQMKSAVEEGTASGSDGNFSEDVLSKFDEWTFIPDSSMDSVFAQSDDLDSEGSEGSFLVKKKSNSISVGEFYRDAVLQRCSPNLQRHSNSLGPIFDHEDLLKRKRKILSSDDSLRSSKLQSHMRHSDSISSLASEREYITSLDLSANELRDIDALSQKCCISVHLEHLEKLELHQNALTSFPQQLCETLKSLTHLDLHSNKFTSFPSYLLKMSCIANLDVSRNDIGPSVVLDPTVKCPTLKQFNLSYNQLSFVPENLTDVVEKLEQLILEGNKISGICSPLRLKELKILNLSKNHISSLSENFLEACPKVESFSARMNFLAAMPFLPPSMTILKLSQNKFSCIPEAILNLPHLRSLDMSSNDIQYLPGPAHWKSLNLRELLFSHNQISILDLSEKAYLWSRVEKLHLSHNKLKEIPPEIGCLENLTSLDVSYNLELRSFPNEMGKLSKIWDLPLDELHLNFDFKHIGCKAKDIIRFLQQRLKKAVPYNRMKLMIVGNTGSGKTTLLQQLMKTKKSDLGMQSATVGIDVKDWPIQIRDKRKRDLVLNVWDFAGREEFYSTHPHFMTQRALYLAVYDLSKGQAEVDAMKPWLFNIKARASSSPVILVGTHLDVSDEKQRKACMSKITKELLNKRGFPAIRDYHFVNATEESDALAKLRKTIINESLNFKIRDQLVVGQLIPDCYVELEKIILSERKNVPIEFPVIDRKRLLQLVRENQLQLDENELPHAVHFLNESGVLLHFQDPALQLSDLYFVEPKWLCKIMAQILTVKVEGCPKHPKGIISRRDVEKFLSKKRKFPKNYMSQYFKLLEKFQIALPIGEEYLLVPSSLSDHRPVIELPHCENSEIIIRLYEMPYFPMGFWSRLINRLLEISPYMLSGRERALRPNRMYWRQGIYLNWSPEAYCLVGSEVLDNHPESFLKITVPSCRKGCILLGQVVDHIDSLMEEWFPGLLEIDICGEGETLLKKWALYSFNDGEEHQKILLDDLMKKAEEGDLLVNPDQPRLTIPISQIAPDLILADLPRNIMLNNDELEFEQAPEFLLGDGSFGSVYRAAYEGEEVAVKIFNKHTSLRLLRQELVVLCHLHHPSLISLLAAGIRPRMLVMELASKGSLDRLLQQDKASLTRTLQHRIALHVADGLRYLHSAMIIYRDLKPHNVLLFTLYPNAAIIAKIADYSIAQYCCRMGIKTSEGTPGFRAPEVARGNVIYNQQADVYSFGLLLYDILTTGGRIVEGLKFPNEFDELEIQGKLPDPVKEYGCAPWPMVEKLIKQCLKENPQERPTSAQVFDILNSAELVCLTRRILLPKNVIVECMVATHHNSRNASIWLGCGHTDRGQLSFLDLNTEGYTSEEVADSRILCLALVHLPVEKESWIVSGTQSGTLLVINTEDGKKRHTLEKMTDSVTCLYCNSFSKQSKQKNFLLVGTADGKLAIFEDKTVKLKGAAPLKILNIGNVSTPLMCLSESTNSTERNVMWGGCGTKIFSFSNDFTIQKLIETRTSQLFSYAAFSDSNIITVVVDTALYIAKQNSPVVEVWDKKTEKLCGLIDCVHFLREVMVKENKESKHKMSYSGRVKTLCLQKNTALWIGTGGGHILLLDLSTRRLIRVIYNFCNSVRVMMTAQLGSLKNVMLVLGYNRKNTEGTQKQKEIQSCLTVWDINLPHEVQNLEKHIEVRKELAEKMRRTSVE
Sequence of Leucine-rich repeat serine/threonine-protein kinase 2 (Homo sapiens, UniProt Q5S007) (Q5S007 whole entry): as the sequence (Q5S007 whole entry G2019S) above, with S2019G counted along it

`CCc1nc2cnc3ccc(Cl)cc3c2n1[C@@H]1CCO[C@H](CC#N)C1` came in with an IC50 in experiment [1] of 8.7 nM.

`[2H]C([2H])([2H])c1cnc(Cc2nc3cnc4ccc(Cl)cc4c3n2[C@@H]2CCO[C@H](C)C2)cn1`: it took 2.16 nM to reach half-maximal inhibition in experiment [1] (IC50). For the compound `N#Cc1ccc2ncc3nc(Cc4csnn4)n([C@@H]4CC[C@H](F)C4)c3c2c1` (relative stereo), the IC50 was found to be 9.73 nM in experiment [2] and 9.75 nM in experiment [1]. Regarding `Cc1nc(Cc2nc3cnc4ccc(C(F)(F)F)cc4c3n2[C@@H]2CCOCC2(F)F)no1`, the IC50 in experiment [2] came to 25.7 nM; in experiment [1] it was 26.5 nM.
